Results as given in patent publication US20230097883A1, “ERGOTHIONEINE PET COMPOUNDS AND METHODS OF USE THEREOF” (VANDERBILT UNIVERSITY, priority 2021, published 2023).
Entries after “also recorded” stand apart in the source; their conditions may differ.

Experiments:
[1] = system: neuroblastoma SH-SY5Y cells; experiment: DCFH-DA ROS scavenging assay in SH-SY5Y cells; format: cell-based
From the text: We used a commercially available DCFH-DA (2′,7′-dichlorodihydrofluorescein diacetate) probe to assess the ROS scavenging power of ERGO in HeLa and neuroblastoma SH-SY5Y cells. Upon penetrating the cytoplasm, DCFH-DA is deacetylated by endogenous esterases to a non-fluorescent intermediate, followed by oxidation by free radicals. This generates a continuous and extended conjugation system, resulting in the production of highly fluorescent DCF (2′ 7′-dichlorofluorescein). In an aqueous condition, DCF has a maximal excitation and emission of 495 nm and 529 nm, respectively. Well-adhered HeLa or SH-SY5Y cells previously incubated with DCFH-DA were exposed to a commercial ROS initializer and ERGO concentrations ranging from 0-100 mM. […] Each point in the assay was measured in pentaplicate, p<0.0001.
On day 1, HeLa cells or SH-SY5Y cells were seeded into a 96-well plate with a density of 10,000 cells/mL. […] Immediately afterwards, fluorescence measurement began using a microplate reader (Biotek Industries, Agilent Technologies, Winooski, Vt., USA) with an excitation and emission wavelength of 485 nm and 528 nm, respectively. Each ERGO concentration was measured in pentaplicate.

oxidative stress = experiment: [11C]ERGO PET imaging of oxidative stress after ERGO treatment; format: in vivo, mouse; details: ERGO-treated versus non-treated 5XFAD mice, 20-min dynamic scan after IV injection
Procedure: To address our primary question whether longitudinal consumption of ERGO as a potent antioxidant benefit the brain, three cohorts of animals (n=12 non-treated WT control, n=12 non-treated 5XFAD, and n=18 ERGO-treated 5XFAD) were used (FIG. 3.2A). Starting at the age of 8 weeks, the animals were treated with high doses of ERGO solution (25-50 mg/Kg) formulated in double distilled (dd) water via oral gavage three times a week over the course of eight weeks. To reduce bias in the behavioral experiments with regard to the potential stress during gavage treatment, non-treated animals underwent the identical gavage process with the vehicle, water, only. The efficacy of the therapy was evaluated by behavioral testing, followed by three different non-invasive PET imaging sessions to assess biomarkers related to AD pathology. In addition to assessing Abeta levels and glucose metabolism using the [^11C]PIB and [^18F]FDG probes, respectively; we also tested for the first time whether oxidative stress could be used as an indicator of response to therapy using the [^11C]ERGO PET radioligand. Finally, animals were euthanized, and the brains were collected for immunohistochemical analysis.
Thus, in this study, [^11C]ERGO PET radioligand was used to assess the fluctuation in oxidative stress with respect to ERGO therapy. […]

[2] = 90-minute dynamic PET scanning of [11C]ERGO biodistribution in the brain of 5XFAD mice; format: in vivo, mouse
Procedure: The dynamic acquisition was divided into twelve 5 sec frames, four 60 sec frames, five 120 sec frames, three 5 min frames, and six 10 min scans. The data from all possible lines of response (LOR) were saved in the list mode raw data format. The raw data were then binned into 3D sinograms with a span of 3 and ring difference of 47. The images were reconstructed into transaxial slices (128×128×159) with voxel sizes of 0.0815×0.0815×0.0796 cm^3, using the MAP algorithm with 16 subsets, 4 iterations, and a beta of 0.0468. For anatomical co-registration, immediately following the PET scans, the mice received a CT scan in a NanoSPECT/CT (Mediso, Wash. D.C.) at an X-ray beam intensity of 90 mAs and x-ray peak voltage of 45 kVp. The CT images were reconstructed into 170×170×186 voxels at a voxel size of 0.4×0.4×0.4 mm^3. The PET/CT images were uploaded into Amide software (www.sourceforge.com), co-registered to an MRI template made in-house, and volumetric regions-of-interest were drawn around the cortex, hippocampus, striatum, thalamus, and cerebellum in addition to the whole brain. The PET images were normalized to the injected dose, and the time-activity-curves (TACs) of the mean activity within the ROIs were estimated for the entire duration of the scans.
To test the distribution of ERGO non-invasively in vivo, approximately 37 MBq/0.1 mL of [^11C]ERGO probe was given to anesthetized 5XFAD mice (8-month-old, n=4) in single bolus intravenous (I.V.) injection via the lateral tail vein. The administration of the probe was simultaneous with the start of a 90-minute dynamic PET imaging, followed by subsequent CT scan. The PET images were normalized to the injected dose, and the time-activity-curves (TACs) of the mean activity within the ROIs were estimated for the entire duration of the scans. Within 5 min post I.V. injection, [^11C]ERGO can be detected in the brain parenchyma (FIG. 1.5A, top panel). […] Using an age-matched mouse brain template, the positron-emitted signal at different brain regions was quantified using AMIDE software. […]

Compound | DCF fluorescence signal (ROS) ([1]; ERGO 100 mM) | DCF fluorescence signal (ROS) ([1]; ERGO starting from 5 mM) | [11C]ERGO PET signal pertaining to oxidative stress in the brain (oxidative stress) | time post I.V. injection at which the probe can be detected in the brain parenchyma ([2]; 8-month-old, approx. 37 MBq/0.1 mL single I.V. bolus) [min] | retention of the probe in the brain ([2]; 30 min post radiotracer injection) | regional distribution of the probe in the brain (PET signal) ([2]; approx. 37 MBq/0.1 mL I.V., 90-min dynamic PET)
C[N+](C)(C)[C@@H](Cc1c[nH]c(=S)[nH]1)C(=O)[O-] [ERGO, L-ergothioneine] | nearly negligible; also recorded: quenches the fluorescence totally | attenuates the fluorescence significantly | very modest reduction in PET signal |  |  | 
C[N+](C)([11CH3])[C@@H](Cc1c[nH]c(=S)[nH]1)C(=O)[O-] [[^11C]ERGO] |  |  |  | ≤ 5 | still remained in the brain | high concentration in the cerebellum and cortex
